From PubChem BioAssay AID248 (DTP/NCI, 2004)
“And” between values parts separate entries of the source, which are not always exact repeats. Equal values may be shown once. Inconclusive results and toxic doses are left out. No stated cut-off is given here; in the data, active means T/C of 150% or more; inactive means T/C below 125%.

Test system: L1210 leukemia ip in BDF1 mice, survival T/C
Test: NCI In Vivo Anticancer Drug Screen. Data for tumor model L1210 Leukemia (intraperitoneal) in B6D2F1 (BDF1) mice
Conditions: endpoint: mean survival time, higher = longer survival
In short: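 Mice bearing the transplanted tumor received compound or vehicle. Survival of the treated group was divided by that of the vehicle-treated control group to give the ratio.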

[1] = dose: 50.0 mg/kg/injection, schedule: Q01DX009 (ip), vehicle: saline
[2] = dose: 100.0 mg/kg/injection, schedule: Q01DX009 (ip), vehicle: saline
[3] = dose: 50.0 mg/kg/injection, schedule: Q01DX009 (ip), vehicle: Klucel (hydroxypropylcellulose) (HPC)
[4] = dose: 100.0 mg/kg/injection, schedule: Q01DX009 (ip), vehicle: Klucel (hydroxypropylcellulose) (HPC)
[5] = dose: 200.0 mg/kg/injection, schedule: Q01DX009 (ip), vehicle: Klucel (hydroxypropylcellulose) (HPC)
[6] = dose: 100.0 mg/kg/injection, schedule: Q04DX003 (ip), vehicle: Klucel (hydroxypropylcellulose) (HPC)
[7] = dose: 200.0 mg/kg/injection, schedule: Q04DX003 (ip), vehicle: Klucel (hydroxypropylcellulose) (HPC)
[8] = dose: 400.0 mg/kg/injection, schedule: Q04DX003 (ip), vehicle: Klucel (hydroxypropylcellulose) (HPC)
[9] = dose: 50.0 mg/kg/injection, schedule: Q01DX009 (ip), vehicle: saline with Tween-80
[10] = dose: 100.0 mg/kg/injection, schedule: Q01DX009 (ip), vehicle: saline with Tween-80
[11] = dose: 100.0 mg/kg/injection, schedule: Q04DX003 (ip), vehicle: saline with Tween-80
[12] = dose: 200.0 mg/kg/injection, schedule: Q01DX009 (ip), vehicle: saline with Tween-80
[13] = dose: 200.0 mg/kg/injection, schedule: Q04DX003 (ip), vehicle: saline with Tween-80
[14] = dose: 400.0 mg/kg/injection, schedule: Q04DX003 (ip), vehicle: saline with Tween-80
[15] = dose: 100.0 mg/kg/injection, schedule: Q01DX001 (ip), vehicle: saline with Tween-80
[16] = dose: 200.0 mg/kg/injection, schedule: Q01DX001 (ip), vehicle: saline with Tween-80
[17] = dose: 400.0 mg/kg/injection, schedule: Q01DX001 (ip), vehicle: saline with Tween-80
[18] = dose: 200.0 mg/kg/injection, schedule: Q01DX009 (ip), vehicle: saline
[19] = dose: 400.0 mg/kg/injection, schedule: Q01DX009 (ip), vehicle: saline with Tween-80

Measured: T/C

O=C(Nc1cc(S(=O)(=O)O)cc2cc(S(=O)(=O)O)c(N=Nc3ccc([As](=O)(O)O)cc3)c(O)c12)c1ccc([N+](=O)[O-])cc1
inactive: dose: 200.0 mg/kg/injection, schedule: Q04DX003 (ip), vehicle: saline sonified 92 % of control

CC(C)(C)OC(=O)C(CC(=O)O)NC(=O)OCc1ccccc1 (stereo not drawn) (tested in a mixture with another compound)
inactive: dose: 25.0 mg/kg/injection, schedule: Q01DX009 (ip), vehicle: saline 101 % of control | dose: 25.0 mg/kg/injection, schedule: Q04DX003 (ip), vehicle: saline 94 % of control | [1] 104 % of control | dose: 50.0 mg/kg/injection, schedule: Q04DX003 (ip), vehicle: saline 94 % of control | [2] 106 % of control | dose: 100.0 mg/kg/injection, schedule: Q04DX003 (ip), vehicle: saline 100 % of control and 91 % of control

Cc1cc2c(-c3ccccc3)nc3ccccc3n2c1Cl
inactive: [3] 92 % of control | [4] 95 % of control | [5] 103 % of control

CN(C)c1nc(N)c(N=O)c(N)n1
inactive: dose: 100.0 mg/kg/injection, schedule: Q04DX002 (ip), vehicle: saline with Tween-80 111 % of control | dose: 200.0 mg/kg/injection, schedule: Q04DX002 (ip), vehicle: saline with Tween-80 107 % of control | dose: 400.0 mg/kg/injection, schedule: Q04DX002 (ip), vehicle: saline with Tween-80 104 % of control

CCOc1ccc(N2C(C#N)c3ccccc3OC2c2ccccc2O)cc1 (stereo not drawn)
inactive: [4] 97 % of control | [5] 97 % of control | dose: 400.0 mg/kg/injection, schedule: Q01DX009 (ip), vehicle: Klucel (hydroxypropylcellulose) (HPC) 101 % of control

COC(=O)c1ccc(N(C)CCC(C)=O)cc1
inactive: dose: 100.0 mg/kg/injection, schedule: Q01DX001 (ip), vehicle: other 97 % of control | dose: 200.0 mg/kg/injection, schedule: Q01DX001 (ip), vehicle: other 95 % of control | dose: 400.0 mg/kg/injection, schedule: Q01DX001 (ip), vehicle: other 106 % of control

C[C@H]1C[C@H]2[C@@H]3CC[C@](O)(C(=O)CO)[C@@]3(C)C[C@H](O)[C@]2(F)[C@@]2(C)C=CC(=O)C=C12
inactive: dose: 25.0 mg/kg/injection, schedule: Q01DX001 (sc), vehicle: steriod suspending solution 103 % of control | dose: 50.0 mg/kg/injection, schedule: Q01DX001 (sc), vehicle: steriod suspending solution 100 % of control | dose: 50.0 mg/kg/injection, schedule: Q04DX003 (sc), vehicle: Klucel (hydroxypropylcellulose) (HPC) 88 % of control | dose: 100.0 mg/kg/injection, schedule: Q01DX001 (sc), vehicle: steriod suspending solution 94 % of control | dose: 100.0 mg/kg/injection, schedule: Q04DX003 (sc), vehicle: Klucel (hydroxypropylcellulose) (HPC) 98 % of control | dose: 200.0 mg/kg/injection, schedule: Q01DX001 (sc), vehicle: steriod suspending solution 98 % of control | dose: 200.0 mg/kg/injection, schedule: Q04DX003 (sc), vehicle: Klucel (hydroxypropylcellulose) (HPC) 90 % of control

O=Ic1ccccc1
inactive: dose: 25.0 mg/kg/injection, schedule: Q01DX009 (ip), vehicle: Klucel (hydroxypropylcellulose) (HPC) 103 % of control | [3] 98 % of control | dose: 50.0 mg/kg/injection, schedule: Q04DX003 (ip), vehicle: Klucel (hydroxypropylcellulose) (HPC) 93 % of control | [6] 89 % of control

Cc1ccc(C)c(OCC(=O)O)c1
inactive: [6] 97 % of control | [7] 101 % of control | [8] 101 % of control

Cc1cccc(NCc2ccc(Cl)cc2Cl)c1
inactive: [9] 106 % of control | [10] 103 % of control | [11] 93 % of control and 88 % of control | [12] 98 % of control | [13] 95 % of control | [14] 96 % of control and 101 % of control

CN1CCC23CCCCC2C1Cc1ccc(O)cc13 (stereo not drawn)
inactive: dose: 75.0 mg/kg/injection, schedule: Q01DX001 (ip), vehicle: saline 95 % of control

C=Cn1nnnc1N
inactive: [15] 100 % of control | [16] 93 % of control | [17] 98 % of control

O=S(=O)(NO)c1cccc(S(=O)(=O)NO)c1
inactive: [2] 97 % of control | [6] 89 % of control | [18] 87 % of control | [7] 95 % of control | [8] 92 % of control

Cc1ccc(Nc2n[nH]c(=S)s2)cc1F
inactive: dose: 75.0 mg/kg/injection, schedule: Q01DX001 (ip), vehicle: other 100 % of control | dose: 150.0 mg/kg/injection, schedule: Q01DX001 (ip), vehicle: other 100 % of control | dose: 300.0 mg/kg/injection, schedule: Q01DX001 (ip), vehicle: other 100 % of control

CCCCCCCCCCCC(c1ccccc1)N(C)C (stereo not drawn)
inactive: dose: 50.0 mg/kg/injection, schedule: Q01DX001 (ip), vehicle: saline 98 % of control | dose: 100.0 mg/kg/injection, schedule: Q01DX001 (ip), vehicle: saline 93 % of control | dose: 200.0 mg/kg/injection, schedule: Q01DX001 (ip), vehicle: saline 93 % of control | dose: 400.0 mg/kg/injection, schedule: Q01DX001 (ip), vehicle: saline 93 % of control

C=C1CC(Cc2ccccc2)OC1=O (stereo not drawn)
inactive: [15] 94 % of control

NS(=O)(=O)c1ccc(NC(=O)Nc2ccccc2)cc1
inactive: [4] 92 % of control | [5] 97 % of control

CC(C)CC(Br)C(=O)NC(CC(C)C)C(=O)O (stereo not drawn)
inactive: [10] 96 % of control | [12] 88 % of control | [19] 92 % of control

Cc1cncc(=O)[nH]1
inactive: [15] 98 % of control | [10] 96 % of control | [11] 104 % of control | [16] 98 % of control | [12] 100 % of control | [13] 111 % of control | [17] 102 % of control | [19] 91 % of control | [14] 98 % of control

CC(C)C(=O)NC(Cc1ccccc1)C(=O)N(Cc1ccccc1)N=O (stereo not drawn)
inactive: dose: 32.0 mg/kg/injection, schedule: Q04DX002 (ip), vehicle: Klucel (hydroxypropylcellulose) (HPC) 94 % of control | dose: 63.0 mg/kg/injection, schedule: Q04DX002 (ip), vehicle: Klucel (hydroxypropylcellulose) (HPC) 97 % of control | dose: 125.0 mg/kg/injection, schedule: Q04DX002 (ip), vehicle: Klucel (hydroxypropylcellulose) (HPC) 94 % of control

CS(=O)(=O)c1ccc(N)cc1
inactive: dose: 6.25 mg/kg/injection, schedule: Q04DX003 (ip), vehicle: Klucel (hydroxypropylcellulose) (HPC) 99 % of control | dose: 12.5 mg/kg/injection, schedule: Q04DX003 (ip), vehicle: Klucel (hydroxypropylcellulose) (HPC) 95 % of control | dose: 25.0 mg/kg/injection, schedule: Q04DX003 (ip), vehicle: Klucel (hydroxypropylcellulose) (HPC) 95 % of control | [9] 100 % of control | [1] 93 % of control | [10] 92 % of control | [2] 87 % of control | [12] 92 % of control | [18] 93 % of control

CCCCCCCC/C=C\CCCCCCCC(=O)[O][Sn]([CH2]CCC)([CH2]CCC)[O]C(=O)CCCCCCC/C=C\CCCCCCCC
inactive: dose: 1.56 mg/kg/injection, schedule: Q01DX009 (ip), vehicle: Klucel (hydroxypropylcellulose) (HPC) 109 % of control | dose: 3.12 mg/kg/injection, schedule: Q01DX009 (ip), vehicle: Klucel (hydroxypropylcellulose) (HPC) 98 % of control | dose: 6.25 mg/kg/injection, schedule: Q01DX009 (ip), vehicle: Klucel (hydroxypropylcellulose) (HPC) 106 % of control

CCOC(=O)CNC(=O)C(OC(C)=O)C(OC(C)=O)C(=O)O (stereo not drawn)
inactive: dose: 100.0 mg/kg/injection, schedule: Q04DX003 (ip), vehicle: water 97 % of control | dose: 200.0 mg/kg/injection, schedule: Q04DX003 (ip), vehicle: water 92 % of control | dose: 400.0 mg/kg/injection, schedule: Q04DX003 (ip), vehicle: water 92 % of control

CCOC(=O)n1[nH][nH]c2c(c(=O)n(C)c(=O)n2C)n1C(=O)OCC
inactive: dose: 75.0 mg/kg/injection, schedule: Q04DX003 (ip), vehicle: saline 95 % of control | dose: 150.0 mg/kg/injection, schedule: Q04DX003 (ip), vehicle: saline 95 % of control | dose: 300.0 mg/kg/injection, schedule: Q04DX003 (ip), vehicle: saline 94 % of control

CCc1ccccc1NC(=O)N1CCCCC1C (stereo not drawn)
inactive: [4] 102 % of control | [5] 94 % of control
